Test results as given in patent US10463710B2, “Short synthetic peptide for the treatment and/or prophylaxis of autoimmune and inflammatory disorders” (MacKay Memorial Hospital, priority 2015, dated 2019).

Test system: HOCl-induced skin fibrosis
Assay: Mouse model of HOCl-induced systemic sclerosis (skin fibrosis)
Type: in vivo, BALB/c mice
Protocol: Induction of SSc have been successfully established by subcutaneously injection with prooxidative agents (e.g., hypochlorous acid, HOCl) in BALB/c mice every day for 6 weeks (Servettaz A et al., J Immuno. 2009; 182: 5855).
To produce HOCl, 166 μl of NaClO solution (2.6% as active chlorine) was added to 11.1 ml of KH2PO4 solution (100 mM; pH 7.2). The concentration of HOCl was determined by spectrophotometry at 292 nm (molar absorption coefficient 350 M^−1 cm^−1). Female BALB/c mice (6 weeks old) were randomly distributed into experimental and control groups (n=6 per group). A total of 100 μl of HOCl solution mixed with 7-mer vehicle or 7-mer (final concentration 0.2 mM) was injected subcutaneously into the shaved back of the mice, using a 27-gauge needle, every day for 6 wks. Subcutaneous injection of phosphate-buffered saline (PBS) was served as normal control. Mice were euthanized and their skins were harvested, fixed overnight in 4% paraformaldehyde and embedded in paraffin. […]
Approximately 20% skin homogenate was used to determine the levels of soluble collagen. The collagen levels were quantified using a Sircol™ soluble collagen assay (Biocolor Ltd., Newtownabbey) according to the manufacturer's protocols. […] Relative absorbance was measured at 540 nm. […]

**Q.** `CC(=O)N[C@@H](CC(=O)O)C(=O)N[C@@H](CC(C)C)C(=O)N[C@@H](Cc1ccc(O)cc1)C(=O)N[C@@H](CCCNC(=N)N)C(=O)N[C@H](C(=O)N[C@@H](CCCNC(=N)N)C(=O)N[C@@H](CO)C(N)=O)C(C)C` [7-mer, NH2-Asp-Leu-Tyr-Arg-Val-Arg-Ser-COOH] was tested. Which “level of dermal collagen (Masson's trichrome)” value (7-mer 0.2 mM s.c. with HOCl daily for 6 wks, vs HOCl/vehicle, FIG. 3A) did it give?
**A.** significant decrease

**Q.** And the “collagen content of skin” value (7-mer treated SSc mice, HOCl-treated SSc mice 169.9±7.75, FIG. 3B)?
**A.** 99.0±5.43 μg collagen/mg skin
